Data published in PMC7162492, “Pharmacological and pharmacokinetic profile of the novel ocular hypotensive prodrug CKLP1 in Dutch-belted pigmented rabbits” (PLoS ONE, 2020).
Where “and” joins values, the source holds several entries; their conditions need not be identical. Equal values may be shown once. Entries after “also recorded” stand apart in the source; their conditions may differ.

Columns and labels:
phosphatases = test: In vitro cleavage of CKLP1 by phosphatases (unpublished data); type: in vitro ADME
[1] = Concentration in aqueous and vitreous humor after topical CKLP1 for 1, 4 or 8 days (LC-MS/MS); type: in vivo, Dutch-belted pigmented rabbits; settings: topical CKLP1 both eyes, days 1, 4 and 8, collected after the 24 h blood sample
Method: (§1) LC-MS/MS analysis of all fluids were performed using a Waters (Milford, MA) Acquity UPLC BEH C18 column (1.7 μm, 2.1 x 50 mm) with an Agilent EC-C18 pre-column (2.7 μm, 2.1 x 5 mm) and a gradient elution program containing ultra-pure water and acetonitrile with 2.5 mM ammonium formate, at a flow rate of 0.2 ml/min. Flavopiridol was used as an internal standard. The column and auto-sampler temperatures were maintained at 40°C and 4°C, respectively. Source parameters were capillary voltage, 2.6 kV; source temperature, 150°C; desolvation temperature, 500°C; cone gas flow, 150 L/h; and desolvation gas flow, 800 L/h. The cone voltages and collision energies for CKLP1, levcromakalim and flavopiridol were determined by MassLynx-Intellistart software, v4.1, and were 32, 34 and 72 V (cone) and 20, 14 and 30 eV (collision), respectively. The retention times were 4.5 minutes for CKLP1, 5.9 minutes for levcromakalim and 5.7 minutes for flavopiridol.
(§2) To validate accurate measurement of CKLP1 and levcromakalim, known concentrations of CKLP1 (5, 10, 25, 50, 100, 250, 500 ng/ml) and levcromakalim (1, 5, 10, 25, 50, 100, 250 ng/ml) were added to human plasma (obtained from the Mayo Clinic Division of Transfusion Medicine under an Institutional Review Board approved protocol) to make calibration curves. Quality control was determined for each run by using known quantities of CKLP1 and levcromakalim to verify that the instrument recorded values consistent with the established standard curve. The effect of carryover was evaluated by injecting blank samples before and after running the standard samples for calibration curves. Unknown samples with signal to noise ratios >10 were recorded as acceptable concentrations. Samples with signal to noise ratios <10 were reported as not detectable (ND). Controls consisted of a double blank (without analytes and internal standard) and a single blank (only internal standard). The linearity of the calibration curves was determined by plotting the ratios of analytes to internal standard peak areas. The curve was fitted by least squares regression with a 1/x weighting for both CKLP1 and levcromakalim. Data was collected from 3–6.4 minutes for CKLP1 and 4–8 minutes for both levcromakalim and flavopiridol. Waters MassLynx Intellistart software v4.1 was used for analysis.
(§3) All experiments with animals were pre-approved by the Institutional Animal Care and Use Committee of the Mayo Clinic, Rochester, MN and adhered to the recommendations in the Guide for the Care and use of Laboratory Animals of the National Institutes of Health, and the tenets of the ARVO Statement for the Use of Animals in Vision Research. Female Dutch-belted pigmented rabbits (age 7 months) were obtained from Covance Research Products, Inc. (Denver, PA). Rabbits were housed in pairs and kept in a climate controlled room with 12 h light and dark cycles. Animals had unrestrained access to water and standard rabbit food pellets at all times. Upon receipt, animals were acclimated for at least 5 days before initiation of the experiment. IOP was measured with a handheld rebound tonometer (Icare Tonovet, Colonial Medical Supply, Franconia, NH, USA) in conscious and minimally restrained, non-anesthetized rabbits as previously described. Briefly, daily IOP was calculated from the average of 3 independent IOP measurements at 3 different time points each day. These time points corresponded to 1 h, 4 h and 23 h post treatment on any given day. Rabbits that needed to be handled for IOP were subjected to sham IOP measurements for two days prior to initiation of experiment. Rabbits (n = 3) were injected intravenously through the right ear vein with CKLP1 as a bolus dose equal to 0.25 mg/kg body weight. Additional rabbits were treated topically through instillation of 50 μl eye drops of a 10 mM (4.1 mg/ml) solution of CKLP1 in sterile PBS. […]

[2] = Plasma pharmacokinetics after single intravenous injection of CKLP1 (LC-MS/MS); type: in vivo, Dutch-belted pigmented rabbits; settings: rabbit, intravenous 0.25 mg/kg CKLP1
Method: as §1, §2, §3

[3] = test system: IOP in Dutch-belted pigmented rabbits; test: IOP measurement by rebound tonometer during 90 days of topical CKLP1; type: in vivo
Excerpt: All experiments with animals were pre-approved by the Institutional Animal Care and Use Committee of the Mayo Clinic, Rochester, MN and adhered to the recommendations in the Guide for the Care and use of Laboratory Animals of the National Institutes of Health, and the tenets of the ARVO Statement for the Use of Animals in Vision Research. Female Dutch-belted pigmented rabbits (age 7 months) were obtained from Covance Research Products, Inc. (Denver, PA). Rabbits were housed in pairs and kept in a climate controlled room with 12 h light and dark cycles. Animals had unrestrained access to water and standard rabbit food pellets at all times. Upon receipt, animals were acclimated for at least 5 days before initiation of the experiment. IOP was measured with a handheld rebound tonometer (Icare Tonovet, Colonial Medical Supply, Franconia, NH, USA) in conscious and minimally restrained, non-anesthetized rabbits as previously described. Briefly, daily IOP was calculated from the average of 3 independent IOP measurements at 3 different time points each day. These time points corresponded to 1 h, 4 h and 23 h post treatment on any given day. Rabbits that needed to be handled for IOP were subjected to sham IOP measurements for two days prior to initiation of experiment. Rabbits (n = 3) were injected intravenously through the right ear vein with CKLP1 as a bolus dose equal to 0.25 mg/kg body weight. Additional rabbits were treated topically through instillation of 50 μl eye drops of a 10 mM (4.1 mg/ml) solution of CKLP1 in sterile PBS. Topical CKLP1 application was continued once daily (9:30 am every day) for either 1 (n = 3), 4 (n = 3), 8 (n = 3) or 90 days (n = 6). In the 1, 4 and 8 day groups, drug was added to both eyes, whereas in the 90 day group, CKLP1 was added to one eye while the contralateral eye received vehicle (PBS, Corning, Manassas, VA).
IOP values are represented as mean ± standard deviation. IOP differences between treated and control eyes were compared using two-tailed paired Student’s t-test. Pharmacokinetic parameters (Cmax, Tmax, AUC and concentration of CKLP1 and levcromakalim) across various days following treatment were compared with one-way ANOVA. Criterion for statistically significant difference of means was set at p<0.05. Statistical analyses were performed using Microsoft Excel and its data analysis add-on feature.

[4] = parameters: method as in earlier work; settings: ref Roy Chowdhury U, Viker KB, Stoltz KL, et al. J Med Chem. 2016;59(13):6221-31; cited from earlier work
[5] = 10 mM CKLP1 eye drop daily, 90 days

sodium [CKLP1, sodium [(3S,4R)-6-cyano-2,2-dimethyl-4-(2-oxopyrrolidin-1-yl)-chroman-3-yl phosphate]]
Cleavage by phosphatases to cromakalim in vitro (phosphatases): never completely cleaved
Concentration in aqueous humor [1]: No CKLP1 was detected; also recorded: below detectable limits
Concentration in vitreous humor [1]: No CKLP1 was detected; also recorded: below detectable limits
AUClast [2]: 2.164 ± 0.4825 µg·h/mL
Clast [2]: 0.0349 ± 0.0424 µg/mL
Cmax [2]: 1.9685 ± 0.831 µg/mL
Tlast [2]: 5.6 ± 1.8 h
Tmax [2]: 19.8 ± 23.0 min
half-life [2]: 61.8 ± 55.2 min
IOP drop in the treated eye compared to baseline [3, 5]: 11.4 ± 4.7% and 11.4%
IOP reduction in treated eye compared to contralateral vehicle treated eye [3, 5]: 14.1 ± 1.0%
IOP absolute change in treated eyes compared to control eyes ([3]; 10 mM CKLP1 eye drop daily, 90 days, n = 6): 2.4 ± 0.4 mmHg
IOP in the treated eye ([3]; 10 mM CKLP1 eye drop daily, 90 days, baseline 16.5 ± 0.7): 14.6 ± 1.0 mm Hg
Average IOP in treated eyes post treatment (washout group) ([3]; after cessation of 90-day treatment, n = 3, baseline 16.5 ± 0.7): 15.6 ± 0.6 mm Hg
Solubility in water [4]: water soluble
